Reference: patent US8053435B2, “Naphthalenyloxypropenyl derivatives having inhibitory activity against histone deacetylase and pharmaceutical composition comprising the same” (Korea Research Institute of Chemical Technology, priority 2006, dated 2011)
Where two headings read alike, the source gives them in different places.

Legend:
HDAC = test: Inhibitory activity against HDAC (BIOMOL Quantizyme Assay system, Fluor de Lys substrate); format: biochemical; conditions: HeLa nuclear extract as source of HDAC enzymes, enzyme reaction 1 hr, read-out: IC50 (HDAC inhibitory concentration)
Method: HDAC activity was analyzed using BIOMOL Quantizyme™ Assay system which comprised two steps of 1) enzyme reaction between HDAC and a substrate and 2) determination of the level of HDAC inhibitory activity.
(§1) 0.5 μl of HeLa nuclear organic layer (10 μM) (a source of HDAC enzymes) was then added thereto to a final concentration of 100 nM. The enzyme reaction was carried out for 1 hr.
Subsequently, in step 2), 2 μM tricostatin A was added to 50 μl of Flour de Lys™ developer, followed by allowing the mixture to react at room temperature for 15 minutes. The light excited at 355 nm and emitted at 460 nm from the fluorophore was measured with a fluorometric plate reader. The intensity of the fluorescence increases as the enzyme activity is higher. The HDAC inhibitory activity of each of the test compounds was determined and compared with that of the control.
0.5 μl of HeLa nuclear organic layer (10 μM) (a source of HDAC enzymes) was then added thereto to a final concentration of 100 nM, The enzyme reaction was carried out for 1 hr.
as §1, §1

[1] = system: colon cancer cells HCT116; test: Inhibitory activity against proliferation of cancer cells, SRB (Sulforhodamine B) analysis; format: cell-based; conditions: Homo sapiens, read-out: Inhibitory conc. against cancer cell growth (EC50 μM) HCT116
Method: Cancer cells were inoculated into a 96-well microplate at a concentration of 1×10^3˜3×10^3 cells/well and incubated under the condition of 37° C., 5% CO2 for 24 hrs. After the incubation was completed, 0.2, 1, 5, 25, or 100 μM of each of the compounds of Examples was added to the plate, and then the reactant was incubated for 48 hrs. After the substrate was stained with SRB, the anti-cancer activity was determined by comparing the amount of protein in the cells treated with the compound of Examples with that of protein in untreated cells.
Specifically, after the incubation was completed, the culture medium was removed from each well, and the cells were washed 3 times with PBS (pH 7.4). Then, a solution of 50% trichloroacetic acid (TCA) was added to each well in an amount of 50 μl/well at 4° C. for 1 hr to fix them. Then, the microplate was washed 5 times with distilled water and dried in air. […]
50 μl of a staining solution prepared by dissolving 0.4% SRB in 1% acetic acid was added to the wells, and the microplate was kept at room temperature for 1 hr. The well plate was then washed 5 times with 1% acetic acid to remove unbound SRB and dried in air. The stained cells were treated with 150 μl/well of 10 mM Tris-HCl solution (pH 10.5) to elute SRB from the cells, and the absorbance of the cells treated with the compounds of examples at 540 nm was measured, based on the absorbance of an untreated cell. The EC50 value representing inhibition of the cancer cell growth by the extent of 50% was calculated from the measured absorbance, and the results are shown in Table 6.

[2] = HCT-116, Table 2, 48 hrs incubation with compound
[3] = HCT-116, Table 4, 48 hrs incubation with compound

With `CN1CCC(NC(=O)/C(=C/c2ccc(C(=O)NO)cc2)COc2cccc3ccccc23)CC1` [Example 1-1, (E)-4-(3-(1-Methylpiperidin-4-ylamino)-2-((naphthalen-1-yloxy)methyl)-3-oxoprop-1-enyl)-N-hydroxybenzamide] the IC50 (HDAC; Table 1, formula (1) series) was 6 nM and the EC50 [1, 2] was 0.54 µM.

With `CN(C)CC(C)(C)CNC(=O)/C(=C/c1ccc(C(=O)NO)cc1)COc1cccc2ccccc12` [Example 1-4] the IC50 (HDAC; Table 1, formula (1) series) was 14 nM and the EC50 [1, 2] was 0.5 µM.

With `COCC(C)NC(=O)/C(=C/c1ccc(C(=O)NO)cc1)COc1cccc2ccccc12` (stereo not shown) [Example 1-6, (E)-4-(3-(1-Methoxypropan-2-ylamino)-2-((naphthalen-1-yloxy)methyl)-3-oxoprop-1-enyl)-N-hydroxybenzamide] the IC50 (HDAC; Table 1, formula (1) series) was 23 nM and the EC50 [1, 2] was 0.63 µM.

Work on `COc1ccc(CNC(=O)/C(=C/c2ccc(C(=O)NO)cc2)COc2cccc3ccccc23)cc1` [Example 1-7, (E)-4-(3-(4-Methoxybenzylamino)-2-((naphthalen-1-yloxy)methyl)-3-oxoprop-1-enyl)-N-hydroxybenzamide] yielded an IC50 (HDAC; Table 1, formula (1) series) of 10 nM and an EC50 [1, 2] of 0.7 µM.

With `O=C(NCc1ccco1)/C(=C/c1ccc(C(=O)NO)cc1)COc1cccc2ccccc12` [Example 1-12, (E)-4-(3-(Furan-2-ylmethylamino)-2-((naphthalen-1-yloxy)methyl)-3-oxoprop-1-enyl)-N-hydroxybenzamide] the IC50 (HDAC; Table 1, formula (1) series) was 7 nM and the EC50 [1, 2] was 0.6 µM.

`CN(C)c1ccc(CNC(=O)/C(=C/c2ccc(C(=O)NO)cc2)COc2cccc3ccccc23)cc1` [Example 1-13, (E)-4-(3-(4-(Dimethylamino)benzylamino)-2-((naphthalen-1-yloxy)methyl)-3-oxoprop-1-enyl)-N-hydroxybenzamide] gave an IC50 (HDAC; Table 1, formula (1) series) of 20 nM and an EC50 [1, 2] of 0.8 µM.

With `CCN1CCC(NC(=O)/C(=C/c2ccc(C(=O)NO)cc2)COc2cccc3ccccc23)CC1` [Example 1-17, (E)-4-(3-(1-Ethylpiperidin-4-ylamino)-2-((naphthalen-1-yloxy)methyl)-3-oxoprop-1-enyl)-N-hydroxybenzamide] the IC50 (HDAC; Table 1, formula (1) series) was 8 nM and the EC50 [1, 2] was 0.5 µM.

For `CN1CCCC1CCNC(=O)/C(=C/c1ccc(C(=O)NO)cc1)COc1cccc2ccccc12` (stereo not shown) [Example 1-22, (E)-4-(3-(2-(1-Methylpyrrolidin-2-yl)ethylamino)-2-((naphthalen-1-yloxy)methyl)-3-oxo-1-propenyl)-N-hydroxy-benzamide], the IC50 (HDAC; Table 1, formula (1) series) was 13 nM and the EC50 [1, 2] was 0.8 µM.

In the case of `CC(C)N1CCC(NC(=O)/C(=C/c2ccc(C(=O)NO)cc2)COc2cccc3ccccc23)CC1` [Example 1-23, (E)-4-(3-(1-Isopropylpiperidin-4-ylamino)-2-((naphthalen-1-yloxy)methyl)-3-oxoprop-1-enyl)-N-hydroxybenzamide], the EC50 [1, 2] is reported as 0.7 µM.

For `COc1ccc(CNC(=O)/C(=C/CCCCC(=O)NO)COc2cccc3ccccc23)cc1` [Example 2-6, (E)-N8-Hydroxy-N1-(4-methoxybenzyl)-2-((naphthalen-1-yloxy)methyl)-2-octenediamide], the IC50 (HDAC; Table 3, formula (2) series) was 5 nM and the EC50 [1, 3] was 0.8 µM.

`O=C(CCCCC=C(COc1cccc2ccccc12)C(=O)NCC1CCCO1)NO` (stereo not shown) [Example 2-8, (E)-N8-Hydroxy-2-((naphthalen-1-yloxy)methyl)-N1-(tetrahydrofuran-2-yl)methyl)-2-octenediamide] gave an IC50 (HDAC; Table 3, formula (2) series) of 14 nM and an EC50 [1, 3] of 0.7 µM.

`O=C(CCCC/C=C(\COc1cccc2ccccc12)C(=O)NC1CCCCC1)NO` [Example 2-14, (E)-N1-Cyclohexyl-N8-hydroxy-2-((naphthalen-1-yloxy)methyl)-2-octenediamide] gave an EC50 [1, 3] of 0.8 µM.

“(E)-(3-(3-(Pyrrolidin-1-yl)propylamino)-2-((naphthalen-1-yloxy)methyl)-3-oxoprop-1-enyl)-N-hydroxybenzamide [Example 1-20]” gave an IC50 (HDAC; Table 1, formula (1) series) of 6 nM.

“(E)-N1-(2-(Diisopropylamino)ethyl)-N8-hydroxy-2-((naphthalen-1-yloxy)methyl)octenediamide [Example 2-4]” was tested, and the IC50 (HDAC; Table 3, formula (2) series) was 9 nM.

Molecule “(E)-N1-(3-(Dimethylamino)-2,2-dimethylpropyl)-N8-hydroxy-2-((naphthalen-1-yloxy)methyl)octenediamide [Example 2-3]” has an IC50 (HDAC; Table 3, formula (2) series) of 21 nM.
